The source of these data is US20230322745A1, “FUSED TRICYCLIC DERIVATIVE AND PHARMACEUTICAL APPLICATION THEREOF” (CHIA TAI TIANQING PHARMACEUTICAL GROUP CO., LTD., priority 2020, published 2023).

As usually defined, the EC50 is the midpoint of the concentration-response curve. Usually IC50 stands for the concentration that inhibits the measured activity by half.

Assay [1] concerns the target β1 receptor (cells expressing human ADRB1 gene) (Homo sapiens (Human), UniProt P08588). In words: Agonistic effect on β1 receptor by HTRF cAMP method. The assay is classed as cell-based. As to the method:
β1 receptor is a G protein-coupled receptor, which is mainly coupled with Gs protein, and can activate adenylate cyclase activity through the Gs protein after being activated by binding to the ligand, thereby increasing the level of intracellular cAMP. In this experiment, the agonistic activity of the compounds against the β1 receptor in vitro was assayed by the cAMP kit.
(§1) β1 cells (expressing human ADRB1 gene) from ICE Bioscience Inc. were grown under standard conditions. The cells were collected and diluted with 1× Stimulation Buffer, and 9 μL of the cell dilution was added to a white low-volume 384-well plate with 4000 cells seeded in each well. Compounds were serially diluted in DMSO in a 5-fold gradient to obtain 10 concentrations. Before testing, compounds that had been serially diluted in DMSO were subjected to 100-fold dilution with 1× Stimulation Buffer to obtain compound working solutions. The concentration of the vehicle DMSO was 0.1%. Eu-cAMP and ULight™-anti-cAMP were diluted to the working concentration with Detection buffer. 5 μL of Eu-cAMP diluent and 5 μL of ULight™-anti-cAMP diluent were sequentially added into corresponding experiment wells. After 1 h of incubation at room temperature, readings at 665 nm and 620 nm were measured under the excitation wavelength of 330 nm using a Biotek microplate reader. The activity of the compounds was obtained by plotting through Ratio (665/620) against the concentration of the compounds, fitting the curve by a nonlinear regression method using GraphPad Prism 7 software and calculating EC50.
A general note: Time-resolved FRET reads energy transfer from a long-lived donor to a nearby acceptor.

Assay [2] deals with β2 receptor (cells expressing human ADRB2 gene) (Homo sapiens (Human), UniProt P07550). In words: Agonistic effect on β2 receptor by HTRF cAMP method. To be noted: HTRF cAMP, 1 h incubation at room temperature; read-out: EC50, agonistic activity against the β2 receptor in vitro. The assay is classed as cell-based. As to the method:
β2 receptor is a G protein-coupled receptor, which is mainly coupled with Gs protein, and can activate adenylate cyclase activity through the Gs protein after being activated by binding to the ligand, thereby increasing the level of intracellular cAMP. In this experiment, the agonistic activity of the compounds against the β2 receptor in vitro was assayed by the cAMP kit.
as §1, with “β2” for “β1”, “ADRB2” for “ADRB1”, “1000” for “4000”

The next assay has as its target M3 receptor (Homo sapiens (Human), UniProt P20309). In words: M3 receptor affinity test (3H-NMS competition). The assay is classed as binding. Conditions: read-out: IC50, activity against the M3 receptor in vitro. As for the experimental part: M3 receptor is a G protein-coupled receptor. In this experiment, the activity of test compounds against the M3 receptor in vitro was assayed by the competition of radioisotope labeled NMS and non-isotope labeled test compounds for an M3 binding site.
The experiment was performed by a radioisotope affinity assay. The M3 receptor membrane protein was prepared at 10 μg/mL by Biology Department of WuXi AppTec, and compounds were serially diluted in a 2.5-fold gradient in DMSO to obtain 10 concentrations. Radioisotope 3H-NMS was prepared at 0.2 nM in an assay buffer (10 mM HEPES, 1 mM MgCl2, pH 7.40). In formal testing, the experimental system comprising 1 […], 100 μL of M3 receptor membrane protein and 100 μL of radioisotope was shaken in a shaker at 300 RPM for 2 h at room temperature. A GF/C plate (Perkin Elmer, Cat No. 6055690) was prefoamed with 0.3% PEI, and the membrane proteins in the reaction solution were collected by filtration onto the GF/C plate. The signal values were read by a Perkin Elmer Microbeta2 instrument and the inhibition rate for each concentration point was shown as a percentage.

The structures appear in SMILES notation. Structures can show the parent of a compound that is named as a salt.

β2 receptor (cells expressing human ADRB2 gene), sequence (P07550 whole entry): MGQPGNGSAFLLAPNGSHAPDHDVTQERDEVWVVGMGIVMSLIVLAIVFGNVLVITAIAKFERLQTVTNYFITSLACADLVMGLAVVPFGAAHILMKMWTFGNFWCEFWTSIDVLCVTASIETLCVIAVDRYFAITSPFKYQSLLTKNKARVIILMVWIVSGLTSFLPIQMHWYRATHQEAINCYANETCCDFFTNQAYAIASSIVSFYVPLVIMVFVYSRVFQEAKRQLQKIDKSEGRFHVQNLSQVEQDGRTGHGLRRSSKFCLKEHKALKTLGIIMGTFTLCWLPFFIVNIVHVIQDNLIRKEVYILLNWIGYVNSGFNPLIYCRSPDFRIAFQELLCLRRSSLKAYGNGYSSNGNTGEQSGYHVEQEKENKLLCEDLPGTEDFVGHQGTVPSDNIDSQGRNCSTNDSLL
M3 receptor, sequence (P20309 whole entry): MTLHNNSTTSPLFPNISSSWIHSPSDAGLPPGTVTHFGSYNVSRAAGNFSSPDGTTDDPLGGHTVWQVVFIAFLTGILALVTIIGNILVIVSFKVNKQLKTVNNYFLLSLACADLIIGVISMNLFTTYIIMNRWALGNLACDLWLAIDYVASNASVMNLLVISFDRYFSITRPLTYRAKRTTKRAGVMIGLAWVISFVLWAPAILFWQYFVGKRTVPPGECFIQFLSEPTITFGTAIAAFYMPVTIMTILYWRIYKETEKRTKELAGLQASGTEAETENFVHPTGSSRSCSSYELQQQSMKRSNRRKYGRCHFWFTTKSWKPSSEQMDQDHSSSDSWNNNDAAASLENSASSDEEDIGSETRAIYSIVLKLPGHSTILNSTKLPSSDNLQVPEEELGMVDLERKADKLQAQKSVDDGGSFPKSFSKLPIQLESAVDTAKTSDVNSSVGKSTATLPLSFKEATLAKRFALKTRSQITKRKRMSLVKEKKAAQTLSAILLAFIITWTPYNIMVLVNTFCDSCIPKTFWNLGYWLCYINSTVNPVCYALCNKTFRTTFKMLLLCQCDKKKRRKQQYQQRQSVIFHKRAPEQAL
β1 receptor (cells expressing human ADRB1 gene), sequence (P08588 whole entry): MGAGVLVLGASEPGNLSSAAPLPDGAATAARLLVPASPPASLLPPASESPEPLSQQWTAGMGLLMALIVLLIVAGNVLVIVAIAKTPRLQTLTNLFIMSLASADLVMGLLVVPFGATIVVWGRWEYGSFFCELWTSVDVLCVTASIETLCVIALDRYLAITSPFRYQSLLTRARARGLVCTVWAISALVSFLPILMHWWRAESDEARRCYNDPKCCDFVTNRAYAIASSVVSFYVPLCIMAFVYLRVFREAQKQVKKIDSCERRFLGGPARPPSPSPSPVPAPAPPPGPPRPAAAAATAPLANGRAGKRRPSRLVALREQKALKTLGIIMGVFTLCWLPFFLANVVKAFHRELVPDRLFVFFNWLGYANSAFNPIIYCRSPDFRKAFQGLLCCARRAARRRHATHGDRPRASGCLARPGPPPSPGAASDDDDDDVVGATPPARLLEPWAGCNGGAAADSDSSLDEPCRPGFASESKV

Regarding `O=C(OC1CC2(CCN(CCCn3nnc4cc(CNC[C@H](O)c5ccc(O)c6[nH]c(=O)ccc56)c5c(c43)CCC5)CC2)C1)C(O)(c1ccc(Cl)s1)c1ccc(Cl)s1` [Formate salt of compound 19], the results for the EC50 in assay [1] and in assay [2] were 1440 nM and 5.14 nM, respectively. The IC50 on M3 receptor came out at 0.281 nM.
The like results for `CN(CCCn1nnc2cc(CNC[C@H](O)c3ccc(O)c4[nH]c(=O)ccc34)c3c(c21)CCC3)[C@H]1CC[C@H](OC(=O)C(O)(c2ccc(Cl)s2)c2ccc(Cl)s2)CC1` [Trifluoroacetate salt of compound 10] were, in that order, 269 nM, 1.36 nM and 1.27 nM.
Take `O=C(OC1CC2(C1)CN(CCCn1nnc3cc(CNC[C@H](O)c4ccc(O)c5[nH]c(=O)ccc45)c4c(c31)CCC4)C2)C(O)(c1cccs1)c1cccs1` [Formate salt of compound 2]: the EC50 in assay [1] is 157 nM; in assay [2] it was 0.889 nM. Moreover, the concentration for half-maximal inhibition (IC50) at M3 receptor was determined as 0.347 nM.
The like results for `O=C(OC1CCC2(CC1)CN(CCCn1nnc3cc(CNC[C@H](O)c4ccc(O)c5[nH]c(=O)ccc45)c4c(c31)CCC4)C2)C(O)(c1cccs1)c1cccs1` [Formate salt of compound 4] were, in that order, 304 nM, 2.15 nM and 0.343 nM.
Consider `CN(CCCn1nnc2cc(CNC[C@H](O)c3ccc(O)c4[nH]c(=O)ccc34)c3c(c21)OCCO3)[C@H]1CC[C@H](OC(=O)C(O)(c2cccs2)c2cccs2)CC1` [Formate salt of compound 12], for which the values for the EC50 in assay [1] and in assay [2] were 127 nM and 2.04 nM, respectively.
Turning to `O=C(OCC1(O)CCN(CCCn2nnc3cc(CNC[C@H](O)c4ccc(O)c5[nH]c(=O)ccc45)c4c(c32)CCC4)CC1)C(O)(c1cccs1)c1cccs1` [Formate salt of compound 31], on M3 receptor, the 50% inhibitory concentration (IC50) was determined as 0.655 nM.
Turning to `Cn1ncc2c(CNC[C@H](O)c3ccc(O)c4[nH]c(=O)ccc34)cc3nnn(CCCN(C)[C@H]4CC[C@H](OC(=O)C(O)(c5cccs5)c5cccs5)CC4)c3c21` [Compound 11], the EC50 came out at 33.7 nM in assay [1] and 1.12 nM in assay [2]. The IC50 on M3 receptor came out at 0.638 nM.
In turn, `C[N+]1(CCCn2nnc3cc(CNC[C@H](O)c4ccc(O)c5[nH]c(=O)ccc45)c4c(c32)CCC4)CCC(OC(=O)C(O)(c2cccs2)c2cccs2)CC1` (stereo partly shown) [Hydrobromide salt of compound 30] returned a 50% effective concentration (EC50) in assay [1] of 94.9 nM.
